In patent US12268667B2, “JAK1 pathway inhibitors for the treatment of prurigo nodularis” (Incyte Corporation, priority 2021, dated 2025):

B1: nemolizumab (antibody, chains of the INN, looked up)
heavy: QVQLVQSGAEVKKPGASVKVSCKASGYTFTGYIMNWVRQAPGQGLEWMGLINPYNGGTDYNPQFQDRVTITADKSTSTAYMELSSLRSEDTAVYYCARDGYDDGPYTLETWGQGTLVTVSSASTKGPSVFPLAPSSKSTSGGTAALGCLVKDYFPEPVTVSWNSGALTSGVHTFPAVLQSSGLYSLSSVVTVPSSNFGTQTYTCNVDHKPSNTKVDKTVERKSCVECPPCPAPPVAGPSVFLFPPKPKDTLMISRTPEVTCVVVDVSQEDPEVQFNWYVDGVEVHNAKTKPREEQFNSTFRVVSVLTVVHQDWLNGKEYKCKVSNKGLPAPIEKTISKTKGQPREPQVYTLPPSQEEMTKNQVSLTCLVKGFYPSDIAVEWESNGQPENNYKTTPPMLDSDGSFFLYSKLTVDKSRWQEGNVFSCSVMHEALHNHYTQKSLSLSP
light: DIQMTQSPSSLSASVGDRVTITCQASEDIYSFVAWYQQKPGKAPKLLIYNAQTEAQGVPSRFSGSGSGTDFTLTISSLQPEDFATYYCQHHYDSPLTFGGGTKVEIKRTVAAPSVFIFPPSDEQLKSGTASVVCLLNNFYPREAKVQWKVDNALQSGNSQESVTEQDSKDSTYSLSSTLTLSKADYEKHKVYACEVTHQGLSSPVTKSFNRGEC

Tests used:
[1] = molecular target: human JAK2 (a.a. 828-1132) (Homo sapiens (Human), UniProt O60674); assay: In vitro JAK kinase assay (HTRF), JAK2; assay type: biochemical; conditions: JAK2/JAK1 IC50 ratio at 1 mM ATP
Method: (§1) The catalytic activity of JAK1, JAK2 or JAK3 are assayed by measuring the phosphorylation of a biotinylated peptide. The phosphorylated peptide was detected by homogenous time resolved fluorescence (HTRF). […] Reactions are carried out at room temperature for 1 hour and then stopped with 20 μL 45 mM EDTA, 300 nM SA-APC, 6 nM Eu-Py20 in assay buffer (Perkin Elmer, Boston, MA). Binding to the Europium labeled antibody takes place for 40 minutes and HTRF signal was measured on a Fusion plate reader (Perkin Elmer, Boston, MA).

[2] = molecular target: human JAK1 (a.a. 837-1142) (Homo sapiens, UniProt P23458); assay: In vitro JAK kinase assay (HTRF), JAK1; assay type: biochemical; conditions: 1 mM ATP
Method: as §1

PN lesional skin = conditions: PN skin cultured with nemolizumab; cited from earlier work
IL-31 = conditions: cited from earlier work

human JAK2 (a.a. 828-1132), sequence (O60674 828-1132): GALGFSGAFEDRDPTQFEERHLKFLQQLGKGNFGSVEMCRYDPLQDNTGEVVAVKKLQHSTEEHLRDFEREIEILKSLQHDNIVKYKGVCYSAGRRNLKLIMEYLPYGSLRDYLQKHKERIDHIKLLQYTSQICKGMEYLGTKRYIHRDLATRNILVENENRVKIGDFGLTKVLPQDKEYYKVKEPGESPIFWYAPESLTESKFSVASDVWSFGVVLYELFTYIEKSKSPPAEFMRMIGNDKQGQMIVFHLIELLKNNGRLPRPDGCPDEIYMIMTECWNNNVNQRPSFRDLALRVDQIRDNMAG

Row | Molecule | JAK2/JAK1 [1] | IC50 [2] [nM] | IL-17 levels in lesional skin (PN lesional skin) | effect on pruritus and skin lesions in PN patients (IL-31)
1 | N#CCC(C1CCN(c2cccc(Cl)n2)C1)n1cc(-c2ncnc3[nH]ccc23)cn1 (single isomer, unassigned) [Compound 6, 3-[1-(6-chloropyridin-2-yl)pyrrolidin-3-yl]-3-[4-(7H-pyrrolo[2,3-d]pyrimidin-4-yl)-1H-pyrazol-1-yl]propanenitrile] | >10 | < 10 |  | 
2 | N#CCC(CN1CCN(C(=O)c2ccc(C#N)cc2F)CC1)n1ccc(-c2ncnc3[nH]ccc23)c1 (stereo not shown) [Compound 9, 4-[(4-{3-cyano-2-[3-(7H-pyrrolo[2,3-d]pyrimidin-4-yl)-1H-pyrrol-1-yl]propyl}piperazin-1-yl)carbonyl]-3-fluorobenzonitrile] | >10 | < 10 |  | 
3 | C[C@@H](O)c1nc2cnc3ccsc3c2n1[C@H]1CC[C@H](CC#N)OC1 [Compound 5, ((2R,5S)-5-{2-[(1R)-1-hydroxyethyl]-1H-imidazo[4,5-d]thieno[3,2-b]pyridin-1-yl}tetrahydro-2H-pyran-2-yl)acetonitrile] | >10 | < 100 |  | 
4 | C[C@H](NC(=O)c1cc(F)c(N2CC(CC#N)(n3cc(-c4ncnc5[nH]ccc45)cn3)C2)cc1F)C(F)(F)F [Compound 16, 4-{3-(cyanomethyl)-3-[4-(7H-pyrrolo[2,3-d]pyrimidin-4-yl)-1H-pyrazol-1-yl]azetidin-1-yl}-2,5-difluoro-N-[(1S)-2,2,2-trifluoro-1-methylethyl]benzamide] | >10 | < 10 |  | 
5 | N#CCC1(n2cc(-c3ncnc4[nH]ccc34)cn2)CN([C@H]2CC[C@@H](Oc3cc(CN4CC[C@H](O)C4)cc(C(F)(F)F)n3)CC2)C1 [Compound 22, {1-(cis-4-{[4-{[(3S)-3-hydroxypyrrolidin-1-yl]methyl}-6-(trifluoromethyl)pyridin-2-yl]oxy}cyclohexyl)-3-[4-(7H-pyrrolo[2,3-d]pyrimidin-4-yl)-1H-pyrazol-1-yl]azetidin-3-yl}acetonitrile] | >10 | < 10 |  | 
6 | C[C@@H](CO)NCc1cc(OC2CCN([C@H]3C[C@](CC#N)(n4cc(-c5ncnc6[nH]ccc56)cn4)C3)CC2)nc(C(F)(F)F)c1 [Compound 23, {trans-3-(4-{[4-({[(1S)-2-hydroxy-1-methylethyl]amino}methyl)-6-(trifluoromethyl)pyridin-2-yl]oxy}piperidin-1-yl)-1-[4-(7H-pyrrolo[2,3-d]pyrimidin-4-yl)-1H-pyrazol-1-yl]cyclobutyl}acetonitrile] | >10 | < 10 |  | 
7 | C[C@@H](O)CNCc1cc(OC2CCN([C@H]3C[C@](CC#N)(n4cc(-c5ncnc6[nH]ccc56)cn4)C3)CC2)nc(C(F)(F)F)c1 [Compound 24, {trans-3-(4-{[4-({[(2R)-2-hydroxypropyl]amino}methyl)-6-(trifluoromethyl)pyridin-2-yl]oxy}piperidin-1-yl)-1-[4-(7H-pyrrolo[2,3-d]pyrimidin-4-yl)-1H-pyrazol-1-yl]cyclobutyl}acetonitrile] | >10 | < 10 |  | 
8 | N#CCC1(n2cc(-c3ncnc4[nH]ccc34)cn2)CN(C2CCN(C(=O)Nc3ccc(F)cc3C(F)(F)F)CC2)C1 [Compound 2, 4-{3-(Cyanomethyl)-3-[4-(7H-pyrrolo[2,3-d]pyrimidin-4-yl)-1H-pyrazol-1-yl]azetidin-1-yl}-N-[4-fluoro-2-(trifluoromethyl)phenyl] piperidine-1-carboxamide] | >10 | < 10 |  | 
9 | N#CC[C@]1(n2cc(-c3ncnc4[nH]ccc34)cn2)C[C@H](N2CCC(Oc3cc(CN4CCC[C@@H]4CO)cc(C(F)(F)F)n3)CC2)C1 [Compound 13, {trans-3-(4-{[4-{[(2R)-2-(hydroxymethyl)pyrrolidin-1-yl]methyl}-6-(trifluoromethyl)pyridin-2-yl]oxy}piperidin-1-yl)-1-[4-(7H-pyrrolo[2,3-d]pyrimidin-4-yl)-1H-pyrazol-1-yl]cyclobutyl}acetonitrile] | >10 | < 10 |  | 
10 | CC(C)(O)c1cc(O[C@H]2CC[C@@H](N3CC(CC#N)(n4cc(-c5ncnc6[nH]ccc56)cn4)C3)CC2)nc(C(F)(F)F)c1 [Compound 20, {1-(cis-4-{[4-(1-hydroxy-1-methylethyl)-6-(trifluoromethyl)pyridin-2-yl]oxy}cyclohexyl)-3-[4-(7H-pyrrolo[2,3-d]pyrimidin-4-yl)-1H-pyrazol-1-yl]azetidin-3-yl}acetonitrile] | >10 | < 10 |  | 
11 | N#CCC1(n2cc(-c3ncnc4[nH]ccc34)cn2)CN([C@H]2CC[C@@H](Oc3cc(CN4CC[C@@H](O)C4)cc(C(F)(F)F)n3)CC2)C1 [Compound 21, {1-(cis-4-{[4-{[(3R)-3-hydroxypyrrolidin-1-yl]methyl}-6-(trifluoromethyl)pyridin-2-yl]oxy}cyclohexyl)-3-[4-(7H-pyrrolo[2,3-d]pyrimidin-4-yl)-1H-pyrazol-1-yl]azetidin-3-yl}acetonitrile] | >10 | < 10 |  | 
12 | N#CC[C@]1(n2cc(-c3ncnc4[nH]ccc34)cn2)C[C@H](N2CCC(Oc3cc(CN4CC(O)C4)cc(C(F)(F)F)n3)CC2)C1 [Compound 11, {trans-3-(4-{[4-[(3-hydroxyazetidin-1-yl)methyl]-6-(trifluoromethyl)pyridin-2-yl]oxy}piperidin-1-yl)-1-[4-(7H-pyrrolo[2,3-d]pyrimidin-4-yl)-1H-pyrazol-1-yl]cyclobutyl}acetonitrile] | >10 | < 10 |  | 
13 | N#CCC(CN1CCN(C(=O)c2ccc(C#N)cc2F)CC1)n1cc(-c2ncnc3[nH]ccc23)cn1 (stereo not shown) [Compound 8, 4-[(4-{3-cyano-2-[4-(7H-pyrrolo[2,3-d]pyrimidin-4-yl)-1H-pyrazol-1-yl]propyl}piperazin-1-yl)carbonyl]-3-fluorobenzonitrile] | >10 | < 10 |  | 
14 | B1 |  |  | reduction in IL-17 levels | improvement in pruritus and skin lesions
